# Measurements from patent US20070004036A1, “Methods and compositions for keratinocyte culture” (priority 2005, published 2007).
# Tested on: Human dermal adult and newborn skin fibroblasts
# Test: Fibroblast proliferation in SFM and serum-containing media
# Type: cell-based
# Conditions: primary and secondary culture, FIG. 5
# Description: Human dermal adult and newborn skin fibroblasts were cultured in a SFM and serum-containing media (DMEM 5% FBS). Collagenase (1 μg/ml) was added to the DMEM serum free media (SFM) and tested on primary and secondary culture of human adult and newborn fibroblasts. In both cases (SFM and DMEM 5%) Collagenase increase cell proliferation up to 2-2.5 fold over the controls.
substance,measurement,setting,value
Collagenase,increase in cell proliferation over the controls,DMEM 5% FBS,2-2.5 fold
same,increase in cell proliferation over the controls,"SFM, collagenase 1 μg/ml",2-2.5 fold
